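Where inhibition never reached the appropriate level, the endpoint shown equals the highest concentration tested. Otherwise, values were interpolated linearly from a five-concentration, 48-hour dose response in 96-well plates. The concentration for 50% growth inhibition is given as GI50. TGI: concentration producing complete growth inhibition.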
Columns and labels:
Assay in all cases: inhibition of tumour cell growth, NCI panel, 48 h
[1] = tested on: MCF7 breast
[2] = tested on: OVCAR-4 ovarian
[3] = tested on: COLO 205 colon
[4] = tested on: DU-145 prostate
[5] = tested on: HOP-62 NSCLC
[6] = tested on: RXF 393 renal
[7] = tested on: IGROV1 ovarian
[8] = tested on: 786-0 renal
[9] = tested on: M14 melanoma
[10] = tested on: LOX IMVI melanoma
[11] = tested on: TK-10 renal
[12] = tested on: EKVX NSCLC
[13] = tested on: SK-MEL-5 melanoma
[14] = tested on: KM12 colon
[15] = tested on: NCI-H460 lung
[16] = tested on: UACC-257 melanoma
[17] = tested on: OVCAR-8 ovarian
[18] = tested on: A549 NSCLC
[19] = tested on: SK-MEL-28 melanoma
[20] = tested on: BT-549 breast
[21] = tested on: NCI-H522 lung
[22] = tested on: SN12C renal
[23] = tested on: SW-620 colon
[24] = tested on: UACC-62 melanoma
[25] = tested on: ACHN renal
[26] = tested on: OVCAR-3 ovarian
[27] = tested on: SF-295 CNS
[28] = tested on: PC-3 prostate
[29] = tested on: NCI-H226 lung
[30] = tested on: NCI-H23 lung
[31] = tested on: MDA-MB-231 breast
[32] = tested on: CAKI-1 renal
[33] = tested on: SF-539 CNS
[34] = tested on: HL-60(TB) leukemia
[35] = tested on: RPMI-8226 leukemia
[36] = tested on: HS 578T breast
[37] = tested on: SK-MEL-2 melanoma
[38] = tested on: MDA-MB-435
[39] = tested on: NCI/ADR-RES ovarian
[40] = tested on: K-562 leukemia
[41] = tested on: HCT-15 colon
[42] = tested on: SNB-19 CNS
[43] = tested on: OVCAR-5 ovarian
[44] = tested on: HOP-92 NSCLC
[45] = tested on: SK-OV-3 ovarian
[46] = tested on: HCT-116 colon
[47] = tested on: HT29 colon
[48] = tested on: A498 renal
[49] = tested on: MOLT-4 leukemia
[50] = tested on: U251 CNS
[51] = tested on: UO-31 renal
[52] = tested on: T-47D breast
[53] = tested on: SNB-75 CNS
[54] = tested on: SF-268 CNS

Cc1ccc(-c2c3c(nn2-c2ccc(S(=O)(=O)NC(=O)NC4CCCCC4)cc2)-c2ccccc2C3)cc1
GI50 [1]: 5.88 µM | TGI [1]: 37.3 µM | GI50 [2]: 18.2 µM | TGI [2]: 39.7 µM | GI50 [3]: 12.1 µM | TGI [3]: 30.4 µM | GI50 [4]: 14.3 µM | TGI [4]: 28.7 µM | GI50 [5]: 18.8 µM | TGI [5]: 38.2 µM | GI50 [6]: 23.3 µM | TGI [6]: 63.1 µM | GI50 [7]: 12.9 µM | TGI [7]: 27.9 µM | GI50 [8]: 2.29 µM | TGI [8]: 13.8 µM | GI50 [9]: 14.8 µM | TGI [9]: 30.1 µM | GI50 [10]: 1.82 µM | TGI [10]: 3.73 µM | GI50 [11]: 1.7 µM | TGI [11]: 9.85 µM | GI50 [12]: 11.8 µM | TGI [12]: 25.4 µM | GI50 [13]: 1.33 µM | TGI [13]: 9.39 µM | GI50 [14]: 13 µM | TGI [14]: 38.2 µM | GI50 [15]: 8.75 µM | TGI [15]: 26.3 µM | GI50 [16]: 23.7 µM | TGI [16]: 49.6 µM | GI50 [17]: 26.2 µM | TGI [17]: 70.7 µM | GI50 [18]: 20.2 µM | TGI [18]: 44 µM | GI50 [19]: 18.3 µM | TGI [19]: 37.5 µM | GI50 [20]: 11.4 µM | TGI [20]: 26.5 µM | GI50 [21]: 12 µM | TGI [21]: 28.9 µM | GI50 [22]: 19.4 µM | TGI [22]: 35.6 µM | GI50 [23]: 2.65 µM | TGI [23]: 6.31 µM | GI50 [24]: 16.9 µM | TGI [24]: 32.2 µM | GI50 [25]: 14.6 µM | TGI [25]: 29.5 µM | GI50 [26]: 17.7 µM | TGI [26]: 35.7 µM | GI50 [27]: 18.7 µM | TGI [27]: 48.7 µM | GI50 [28]: 11.1 µM | TGI [28]: 25.3 µM | GI50 [29]: 20.4 µM | TGI [29]: 47.3 µM | GI50 [30]: 10.9 µM | TGI [30]: 27.1 µM | GI50 [31]: 21 µM | TGI [31]: 43.2 µM | GI50 [32]: 18 µM | TGI [32]: 41.8 µM | GI50 [33]: 9.48 µM | TGI [33]: 21.9 µM | GI50 [34]: 5.17 µM | TGI [34]: 21.4 µM | GI50 [35]: 2.44 µM | TGI [35]: 7.42 µM | GI50 [36]: 20.5 µM | TGI [36]: 60.4 µM | GI50 [37]: 16.8 µM | TGI [37]: 32 µM | GI50 [38]: 19 µM | TGI [38]: 41.4 µM | GI50 [39]: 16 µM | TGI [39]: 54.5 µM | GI50 [40]: 3.1 µM | TGI [40]: 13.5 µM | GI50 [41]: 16.1 µM | TGI [41]: 47.7 µM | GI50 [42]: 20.1 µM | TGI [42]: 49.7 µM | GI50 [43]: 29.2 µM | TGI [43]: 70.3 µM | GI50 [44]: 2.65 µM | TGI [44]: 15.8 µM | GI50 [45]: 18.9 µM | TGI [45]: 42.4 µM | GI50 [46]: 3.3 µM | TGI [46]: 15.9 µM | GI50 [47]: 24.3 µM | TGI [47]: > 100 µM | TGI [48]: 20 µM | GI50 [49]: 1.86 µM | TGI [49]: 6.14 µM | GI50 [50]: 12.3 µM | TGI [50]: 26.9 µM | GI50 [51]: 1.33 µM | TGI [51]: 2.64 µM | GI50 [52]: 25.7 µM | TGI [52]: > 100 µM | GI50 [53]: 20.4 µM | TGI [53]: 45.5 µM | GI50 [54]: 11.5 µM | TGI [54]: 28.6 µM

Reference: PubChem BioAssay (NCI)
